Test results: US20230136562A1, “SPIROUREA DERIVATIVES” (Idorsia Pharmaceuticals Ltd, priority 2020, published 2023)
Like-named read-outs stand apart in the source and are kept apart here.

System: primary neuronal cultures from embryonic rat brains
Assay: Rat oscillation assay (FLIPR, neuronal calcium oscillations)
Type: cell-based
Method in brief: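 Cortical neurons from E18 Wistar rat embryos, cultured 8–10 days at high density, loaded with 1 μM Fluo-8 AM; calcium oscillations recorded by FLIPR once per second in Mg-free HBSS with 2 mM CaCl2, 20 mM HEPES, pH 7.4. Two acquisitions ("Acute", 500 sec, compound added at 250 sec; "20 min"), ± Kv7 blocker XE-991.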

[1] = Rattus norvegicus, 20 min, AUC of fluorescence measured 20 min after compound addition, read-out: FLIPR: IC50 [nM] 20 min
[2] = Rattus norvegicus, Acute phase, ratio of AUC fluorescence before and after compound addition, read-out: FLIPR: IC50 [nM] acute
[3] = AUC of fluorescence measured 20 min after compound addition, read-out: FLIPR: IC50 [nM] 20 min
[4] = Acute phase, ratio of AUC fluorescence before and after compound addition, read-out: FLIPR: IC50 [nM] acute

| SMILES | IC50 [1] | IC50 [2] | IC50 [3] | IC50 [4] | activity compared with the (R) enantiomer (assay not given) |
| --- | --- | --- | --- | --- | --- |
| CCOCCC(NC(=O)NC1CC2(CCC2)C1)c1cccc(C(F)(F)F)c1 (racemic) [Example 73, (±)-1-[3-Ethoxy-1-(3-trifluoromethyl-phenyl)-propyl]-3-spiro[3.3]hept-2-yl-urea] | 244 nM | 305 nM | – | – | – |
| O=C(NC1CC2(CCC2)C1)NC1(c2cccc(OC(F)F)c2)CC1 [Example 7, 1-[1-(3-Difluoromethoxy-phenyl)-cyclopropyl]-3-spiro[3.3]hept-2-yl-urea] | 142 nM | 85 nM | – | – | – |
| O=C(NCc1ccc(F)c(C(F)(F)F)c1)NC1CC2(CCC2)C1 [Example 17, 1-(4-Fluoro-3-trifluoromethyl-benzyl)-3-spiro[3.3]hept-2-yl-urea] | 145 nM | 141 nM | – | – | – |
| O=C(NCc1nccc(OCC(F)(F)F)n1)NC1CC2(CCC2)C1 [Example 112, 1-Spiro[3.3]hept-2-yl-3-[4-(2,2,2-trifluoro-ethoxy)-pyrimidin-2-ylmethyl]-urea] | 1420 nM | 1100 nM | – | – | – |
| O=C(NCc1cccc(C(F)(F)F)c1)NC1CC2(C1)CC2(F)F (single isomer, unassigned) [Example 4, 1-(1,1-Difluoro-spiro[2.3]hex-5-yl)-3-(3-trifluoromethyl-benzyl)-urea] | – | – | 152 nM | 175 nM | – |
| CC(Oc1nccc(CNC(=O)NC2CC3(CCC3)C2)n1)C(F)(F)F (single isomer, unassigned) [Example 181, 1-Spiro[3.3]hept-2-yl-3-[2-(2,2,2-trifluoro-1-methyl-ethoxy)-pyrimidin-4-ylmethyl]-urea] | – | – | 564 nM | 404 nM | – |
| O=C(NC1CC2(CCC2)C1)NC(CCO)c1cccc(C(F)(F)F)c1 (racemic) [Example 74, (±)-1-[3-Hydroxy-1-(3-trifluoromethyl-phenyl)-propyl]-3-spiro[3.3]hept-2-yl-urea] | 30 nM | 27 nM | – | – | – |
| COc1ccc(C(F)(F)F)cc1CNC(=O)NC1CC2(CC2)C1 [Example 125, 1-(2-Methoxy-5-trifluoromethyl-benzyl)-3-spiro[2.3]hex-5-yl-urea] | 1990 nM | 1820 nM | – | – | – |
| COCC(Oc1cccc(CNC(=O)NC2CC3(CCC3)C2)n1)C(F)(F)F (racemic) [Example 104, (±)-1-Spiro[3.3]hept-2-yl-3-[6-(2,2,2-trifluoro-1-methoxymethyl-ethoxy)-pyridin-2-ylmethyl]-urea] | 295 nM | 292 nM | – | – | – |
| CC(Oc1cccc(C2(NC(=O)NC3CC4(CC4)C3)CC2)c1)C(F)(F)F (racemic) [Example 135, (±)-1-Spiro[2.3]hex-5-yl-3-{1-[3-(2,2,2-trifluoro-1-methyl-ethoxy)-phenyl]-cyclopropyl}-urea] | 115 nM | 133 nM | – | – | – |
| COC[C@H](NC(=O)NC1CC2(CC2)C1)c1ccnc(OCC(F)(F)F)c1 (single isomer, unassigned) [Example 188] | 5.6 nM | 5.3 nM | – | – | – |
| C[C@H](NC(=O)NC1CC2(CCC2)C1)c1cc(C(F)(F)F)ccc1Br (single isomer, unassigned) [Example 190] | 200 nM | 286 nM | – | – | more active than the (R) enantiomer |
| O=C(NCc1ccc(F)c(C(F)(F)F)c1)NC1CC2(CC2)C1 [Example 148, 1-(4-Fluoro-3-trifluoromethyl-benzyl)-3-spiro[2.3]hex-5-yl-urea] | 355 nM | 312 nM | – | – | – |
| COCC(NC(=O)NC1CC2(CCC2)C1)c1cccc(S(C)(=O)=O)c1 (racemic) [Example 86, (±)-1-[1-(3-Methanesulfonyl-phenyl)-2-methoxy-ethyl]-3-spiro[3.3]hept-2-yl-urea] | 91 nM | 110 nM | – | – | – |
| O=C(NCc1cccc(C(F)(F)F)c1)NC1CC2(C1)CC2(F)F (single isomer, unassigned) [Example 5, 1-(1,1-Difluoro-spiro[2.3]hex-5-yl)-3-(3-trifluoromethyl-benzyl)-urea] | 156 nM | – | – | 82 nM | – |
| O=C(NCc1ccc(F)c(OCC(F)(F)F)c1)NC1CC2(CCC2)C1 [Example 114, 1-[4-Fluoro-3-(2,2,2-trifluoro-ethoxy)-benzyl]-3-spiro[3.3]hept-2-yl-urea] | 61 nM | 107 nM | – | – | – |
| CCOCCC(NC(=O)NC1CC2(CCC2)C1)c1ccnc(OCC(F)(F)F)c1 (racemic) [Example 77, (±)-1-{3-Ethoxy-1-[2-(2,2,2-trifluoro-ethoxy)-pyridin-4-yl]-propyl}-3-spiro[3.3]hept-2-yl-urea] | 226 nM | 279 nM | – | – | – |
| CC(C)(O)C(NC(=O)NC1CC2(CCC2)C1)c1cccc(C(F)(F)F)c1 (racemic) [Example 45, (±)-1-[2-Hydroxy-2-methyl-1-(3-trifluoromethyl-phenyl)-propyl]-3-spiro[3.3]hept-2-yl-urea] | 628 nM | 549 nM | – | – | – |

| SMILES | IC50 [1] | IC50 [2] | IC50 [3] | IC50 [4] | activity compared with the (R) enantiomer (assay not given) |
| --- | --- | --- | --- | --- | --- |
| O=C(NC1CC2(CCC2)C1)NC(c1cccc(OC(F)F)c1)C1CC1 (racemic) [Example 25, (±)-1-[Cyclopropyl-(3-difluoromethoxy-phenyl)-methyl]-3-spiro[3.3]hept-2-yl-urea] | 19 nM | 10 nM | – | – | – |
| O=C(NCc1nccc(OCC(F)(F)F)n1)NC1CC2(CC2)C1 [Example 126, 1-Spiro[2.3]hex-5-yl-3-[4-(2,2,2-trifluoro-ethoxy)-pyrimidin-2-ylmethyl]-urea] | 7620 nM | 4960 nM | – | – | – |
| COC[C@H](NC(=O)NC1CC2(CCC2)C1)c1ccnc(OC(F)F)c1 (single isomer, unassigned) [Example 187] | 3.9 nM | 2.7 nM | – | – | – |
| CS(=O)(=O)CC(NC(=O)NC1CC2(CCC2)C1)c1cccc(C(F)(F)F)c1 (racemic) [Example 69, (±)-1-[2-Methanesulfonyl-1-(3-trifluoromethyl-phenyl)-ethyl]-3-spiro[3.3]hept-2-yl-urea] | 83 nM | 95 nM | – | – | – |
| O=C(NC1CC2(CCC2)C1)NC(c1cccc(C(F)(F)F)c1)c1nc[nH]n1 (stereo not shown) [Example 56, 1-Spiro[3.3]hept-2-yl-3-[(1H-[1,2,4]triazol-3-yl)-(3-trifluoromethyl-phenyl)-methyl]-urea] | 9.7 nM | 27 nM | – | – | – |
| O=C(NCc1ccnc(OCC(F)(F)F)n1)NC1CC2(CCC2)C1 [Example 70, 1-Spiro[3.3]hept-2-yl-3-[2-(2,2,2-trifluoro-ethoxy)-pyrimidin-4-ylmethyl]-urea] | 546 nM | 219 nM | – | – | – |
| Cn1nnnc1C(NC(=O)NC1CC2(CCC2)C1)c1cccc(C(F)(F)F)c1 (racemic) [Example 163, (±)-1-[(1-Methyl-1H-tetrazol-5-yl)-(3-trifluoromethyl-phenyl)-methyl]-3-spiro[3.3]hept-2-yl-urea] | 282 nM | 204 nM | – | – | – |
| NC(=O)C(NC(=O)NC1CC2(CCC2)C1)c1cccc(C(F)(F)F)c1 (racemic) [Example 62, (±)-2-(3-Spiro[3.3]hept-2-yl-ureido)-2-(3-trifluoromethyl-phenyl)-acetamide] | 65 nM | 50 nM | – | – | – |
| O=C(NCc1cccc(OCC(F)(F)F)c1)NC1CC2(CC2)C1 [Example 157, 1-Spiro[2.3]hex-5-yl-3-[3-(2,2,2-trifluoro-ethoxy)-benzyl]-urea] | 156 nM | 74 nM | – | – | – |
| CC(NC(=O)NC1CC2(CCC2)C1)c1cc(OCC(F)(F)F)ccc1F (racemic) [Example 99, (±)-1-{1-[2-Fluoro-5-(2,2,2-trifluoro-ethoxy)-phenyl]-ethyl}-3-spiro[3.3]hept-2-yl-urea] | 20 nM | 32 nM | – | – | – |
| Cc1nc(OCC(F)(F)F)cc(C(CO)NC(=O)NC2CC3(CCC3)C2)n1 (racemic) [Example 82, (±)-1-{2-Hydroxy-1-[2-methyl-6-(2,2,2-trifluoro-ethoxy)-pyrimidin-4-yl]-ethyl}-3-spiro[3.3]hept-2-yl-urea] | 59 nM | 66 nM | – | – | – |
| COc1c(C(C)NC(=O)NC2CC3(CCC3)C2)cccc1C(F)(F)F (racemic) [Example 21, (±)-1-[1-(2-Methoxy-3-trifluoromethyl-phenyl)-ethyl]-3-spiro[3.3]hept-2-yl-urea] | 72 nM | 112 nM | – | – | – |
| CC(C)OCC(NC(=O)NC1CC2(CCC2)C1)c1cccc(C(F)(F)F)c1 (racemic) [Example 72, (±)-1-[2-Isopropoxy-1-(3-trifluoromethyl-phenyl)-ethyl]-3-spiro[3.3]hept-2-yl-urea] | 238 nM | 266 nM | – | – | – |
| CN(C)CC(Oc1cc(CNC(=O)NC2CC3(CCC3)C2)ccn1)C(F)(F)F (racemic) [Example 106, (±)-1-[2-(1-Dimethylaminomethyl-2,2,2-trifluoro-ethoxy)-pyridin-4-ylmethyl]-3-spiro[3.3]hept-2-yl-urea] | 757 nM | 535 nM | – | – | – |
| O=C(NC1CC2(CCC2)C1)NC(CC(F)F)c1cccc(C(F)(F)F)c1 (racemic) [Example 84, (±)-1-[3,3-Difluoro-1-(3-trifluoromethyl-phenyl)-propyl]-3-spiro[3.3]hept-2-yl-urea] | 4.2 nM | 5.1 nM | – | – | – |
| O=C(NCc1cc(F)cc(C(F)(F)F)c1)NC1CC2(CC2)C1 [Example 142, 1-(3-Fluoro-5-trifluoromethyl-benzyl)-3-spiro[2.3]hex-5-yl-urea] | 277 nM | 204 nM | – | – | – |
| CC(NC(=O)NC1CC2(CCC2)C1)c1cc(F)cc(OCC(F)(F)F)c1 (racemic) [Example 95, (±)-1-{1-[3-Fluoro-5-(2,2,2-trifluoro-ethoxy)-phenyl]-ethyl}-3-spiro[3.3]hept-2-yl-urea] | 48 nM | 52 nM | – | – | – |
| CC(NC(=O)NC1CC2(CCC2)C1)c1ccnc(OC(F)F)c1 (racemic) [Example 100, (±)-1-[1-(2-Difluoromethoxy-pyridin-4-yl)-ethyl]-3-spiro[3.3]hept-2-yl-urea] | 3.6 nM | 5.9 nM | – | – | – |
